Data taken from patent US20250051293A1, “NOVEL OXADIAZOLE DERIVATIVE AND USE THEREOF” (CELROS BIOTECH, priority 2021, published 2025).
Where two headings read alike, the source gives them in different places.

Assays:
human NOX4 = target: T1, human NOX4 (Homo sapiens, UniProt Q9NPH5); assay: Lucigenin chemiluminescence assay, drosophila membranes expressing hNOX4; type: biochemical; conditions: average of three repeats
T1 construct: made in house; host or cells: transgenic Drosophila (Da-GAL4 driven UAS-hNOX4, dDuox RNAi background); membranes from homogenized flies
T1 sequence (Q9NPH5 1-578): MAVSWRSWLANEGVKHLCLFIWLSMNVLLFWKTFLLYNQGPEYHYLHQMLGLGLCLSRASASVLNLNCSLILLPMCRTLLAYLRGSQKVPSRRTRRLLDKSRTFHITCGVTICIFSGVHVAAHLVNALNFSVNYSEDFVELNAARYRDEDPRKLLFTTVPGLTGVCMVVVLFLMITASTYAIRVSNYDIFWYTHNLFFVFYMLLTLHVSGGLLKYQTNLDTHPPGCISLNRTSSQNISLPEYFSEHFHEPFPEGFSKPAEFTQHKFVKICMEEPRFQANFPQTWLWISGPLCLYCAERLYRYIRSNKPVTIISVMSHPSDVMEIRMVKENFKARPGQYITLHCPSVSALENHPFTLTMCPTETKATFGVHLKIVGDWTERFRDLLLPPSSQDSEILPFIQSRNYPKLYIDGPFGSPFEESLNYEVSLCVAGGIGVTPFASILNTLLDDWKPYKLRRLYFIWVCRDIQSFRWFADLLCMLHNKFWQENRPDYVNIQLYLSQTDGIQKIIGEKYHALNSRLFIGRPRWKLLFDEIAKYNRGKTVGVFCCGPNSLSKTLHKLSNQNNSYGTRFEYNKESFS
Procedure: (§1) Human NOX isozymes were provided from transgenic flies expressing human NOX isozymes from the daughterless (Da)-GAL4 promoter. The genotype of each fly line is shown below. • human NOX2:UAS-hNOX2/UAS-dDuox-RNAi; Da-GAL4/+ • human NOX4:UAS-hNOX4/UAS-dDuox-RNAi; Da-GAL4/+
(§2) Transgenic flies were homogenized in PBS containing protease inhibitors (aprotinin, leupeptin) to obtain drosophila membranes of each NOX isozyme. The membranes were incubated with the compounds (100 μM, 10 μM, 1 μM, 0.1 μM, 0.01 μM, 0.001 μM, and 0 μM) for 10 minutes in a shaker. Then, to the membranes, a mixture of 500 μM NADPH (R-nicotinamide adenine dinucleotide 2′-phosphate reduced tetrasodium salt hydrate; Sigma-Aldrich) and 400 μM lucigenin (N,N′-dimethyl-9,9-biacridinium dinitrate; Sigma-Aldrich) in 1× HEPES (4-(2-hydroxyethyl)-1-piperazineethanesulfonic acid) buffer was added. Lucigenin chemiluminescence was detected at 1-minute intervals for 10 minutes using a multimode microplate reader (SpectraMax iD3, Molecular Devices). IC50 values were calculated with Graph-Pad Prism 5 (GraphPad Software).
(§3) The lucigenin chemiluminescence assay was performed with drosophila membranes expressing hNOX1, hNOX2, and hNOX4. The assay was repeated three times and the IC50 values were averaged.

human NOX2 = target: T2, human NOX2 (Homo sapiens, UniProt P04839); assay: Lucigenin chemiluminescence assay, drosophila membranes expressing hNOX2; type: biochemical; conditions: average of three repeats
T2 construct: made in house; host or cells: transgenic Drosophila (Da-GAL4 driven UAS-hNOX2, dDuox RNAi background); membranes from homogenized flies
T2 sequence (P04839 2-570 limits assumed): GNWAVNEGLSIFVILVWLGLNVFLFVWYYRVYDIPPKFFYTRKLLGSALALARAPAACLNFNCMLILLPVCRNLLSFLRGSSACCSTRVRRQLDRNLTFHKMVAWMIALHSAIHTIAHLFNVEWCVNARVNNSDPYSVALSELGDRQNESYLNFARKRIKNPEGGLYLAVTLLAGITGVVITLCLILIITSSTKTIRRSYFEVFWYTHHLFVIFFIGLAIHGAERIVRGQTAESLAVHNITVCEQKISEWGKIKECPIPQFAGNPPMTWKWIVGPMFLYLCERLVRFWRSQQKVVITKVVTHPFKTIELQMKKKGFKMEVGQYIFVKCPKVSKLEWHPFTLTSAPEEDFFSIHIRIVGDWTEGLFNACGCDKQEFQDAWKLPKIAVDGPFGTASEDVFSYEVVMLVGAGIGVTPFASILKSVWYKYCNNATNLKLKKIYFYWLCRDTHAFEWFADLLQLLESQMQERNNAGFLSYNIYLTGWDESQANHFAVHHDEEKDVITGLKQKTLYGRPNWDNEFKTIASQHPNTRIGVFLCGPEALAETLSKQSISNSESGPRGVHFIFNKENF
Procedure: as §1, §2, §3

PAMPA-BBB assay = type: in vitro ADME
Procedure: The parallel artificial membrane permeability assay (PAMPA) was performed to determine the brain barrier blood (BBB) permeability. […] For the Blank measurement, the donor buffer was dispensed into a high sensitivity UV plate at 150 μl per well and the UV values were measured (Blank sample). For the initial value measurement, the mixture in the deep well plate was dispensed 150 μl per well into the UV plate and the UV values were measured (initial sample). Next, 200 μl of the test compound mixture was dispensed onto the donor plate of the PAMPA sandwich, and the acceptor plate of the PAMPA sandwich was inverted and the membrane was coated with 5 μl of BBB-lipid solution. Then, 200 μl of acceptor sink buffer was added to each well of the acceptor plate, and the acceptor plate and donor plate were combined and incubated at 25° C. for 4 hours. […] Finally, the permeability (Pe(10^−6 cm/sec)) was analyzed using the PAMPA explore program. The experiment was performed in three replicates. The permeability of the material was analyzed by UV measurement and LC-MS/MS, the specific conditions of which are described below.

[1] = Metabolic stability in human liver microsomes; type: in vitro ADME; conditions: human liver microsomes 0.5 mg/ml, 1 μM, 30 minutes, 37° C., NADPH
Procedure: The stability of a drug may be predicted by using liver microsomes to determine the extent to which the drug is metabolized in the liver. […] Thus, a metabolic stability verification experiment was performed on the oxadiazole derivatives according to The present disclosure.
Specifically, sample treatment human liver microsomes (0.5 mg/ml), 0.1 M phosphate buffer (pH 7.4), and test compound at a concentration of 1 μM were added, and the mixture was pre-incubated at 37° C. for 5 minutes, followed by addition of NADPH Regeneration system solution and incubation at 37° C. for 30 minutes. An acetonitrile solution containing an internal standard (chlorpropamide) was then added to terminate the reaction, followed by centrifugation for 5 minutes (14,000 rpm, 4° C.). Then, the supernatant was injected into the LC-MS/MS system to analyze the substrate drug to evaluate the metabolic stability of the two compounds.
The HPLC column was an Acquity UPLC BEH Amide column (2.1×100 mm, 1.7 μm particle size; Waters, Ireland). The mobile phases were distilled water containing 0.1% formic acid (A) and acetonitrile containing 0.1% formic acid (B). Data analysis was performed using Analyst software (version 1.6.3).

U87 = assay: Mouse model xenografted with brain tumor glioblastoma U87; type: in vivo, mice; conditions: Example 2 study: Example 2 50 mg/kg 5 times per week, TMZ 5 mg/kg 2 times per week, from 20 days after xenografting; vehicle 42 days
Procedure: To confirm the therapeutic effect on brain tumor glioblastoma, U87 (5×10^4), a human brain tumor cell line, was xenografted into the brains of mice to establish a brain tumor model, followed by oral administration of the drugs.
Different experimental groups were evaluated for each compound.
First, with respect to the compound of Example 1, the experimental groups were divided into Vehicle (n=3) and the compound of Example 1, 50 mg/kg (n=3) and the administered with the drug orally 5 times a week 20 days after U87 xenografting.
With respect to the compound of Example 2, the experimental groups were divided into Vehicle (n=9), TMZ 5 mg/kg (Temozolomide, n=10, 2 times per week), the compound of Example 2, 50 mg/kg (n=8, 5 times per week), and combination (TMZ+the compound of Example 2, n=7), and began receiving the drug 20 days after U87 xenografting.

[2] = 50 μM, incubation 4 hr, pH 7.4, 25° C., U.V, read-out: Permeability Pe

IC50 (human NOX4)	IC50 (human NOX2)	Papp at 4 h, 50 μM (PAMPA-BBB assay; [2])	Human (% ) remaining, microsomal stability [1]	Papp at 4 h, 50 μM (PAMPA-BBB assay; pH 7.4)	Structure (SMILES)	median survival time (U87)
0.27 µM	0.23 µM				O=C(Nc1nnc(-c2cccc(Cl)c2)o1)c1ccc(F)c(C(F)(F)F)c1 [Example 6, N-(5-(3-chlorophenyl)-1,3,4-oxadiazol-2-yl)-4-fluoro-3-(trifluoromethyl)benzamide]	
0.38 µM	0.24 µM				O=C(Nc1nnc(-c2ccccc2)o1)c1cc(F)cc(C(F)(F)F)c1 [Example 3, 3-fluoro-N-(5-phenyl-1,3,4-oxadiazol-2-yl)-5-(trifluoromethyl)benzamide]	
0.12 µM	0.19 µM				O=C(Nc1nnc(-c2ccccc2)o1)c1ccc(I)c(C(F)(F)F)c1 [Example 7, 4-iodo-N-(5-phenyl-1,3,4-oxadiazol-2-yl)-3-(trifluoromethyl)benzamide]	
0.14 µM	0.18 µM				O=C(Nc1nnc(-c2cccc(C(F)(F)F)c2)o1)c1ccc(F)c(C(F)(F)F)c1 [Example 5, 4-fluoro-3-(trifluoromethyl)-N-(5-(3-(trifluoromethyl)phenyl)-1,3,4-oxadiazol-2-yl)benzamide]	
0.26 µM	0.17 µM	> 0.4 ×10⁻⁶ cm/s			O=C(Nc1nnc(-c2cccc(-c3ccoc3)c2)o1)c1cc(F)cc(C(F)(F)F)c1 [Example 11]	
0.17 µM	0.15 µM	> 0.4 ×10⁻⁶ cm/s	79.0%		O=C(Nc1nnc(-c2cccc(Br)c2)o1)c1cc(F)cc(C(F)(F)F)c1 [Example 13, N-(5-(3-bromophenyl)-1,3,4-oxadiazol-2-yl)-3-fluoro-5-(trifluoromethyl)benzamide]	
0.13 µM	0.15 µM				O=C(Nc1nnc(-c2cccc(-c3ccsc3)c2)o1)c1cc(F)cc(C(F)(F)F)c1 [Example 9]	
				> 0.4 ×10⁻⁶ cm/s	CC(=O)[C@H]1CC[C@H]2[C@@H]3CCC4=CC(=O)CC[C@]4(C)[C@H]3CC[C@]12C [Progesterone, reference compound]	
0.25 µM	0.21 µM				O=C(Nc1nnc(-c2cccc(Br)c2)o1)c1ccc(F)c(C(F)(F)F)c1 [Example 4, N-(5-(3-bromophenyl)-1,3,4-oxadiazol-2-yl)-4-fluoro-3-(trifluoromethyl)benzamide]	
0.16 µM	0.1 µM	> 0.4 ×10⁻⁶ cm/s	94.9%		O=C(Nc1nnc(-c2cccc(-c3ccoc3)c2)o1)c1ccc(F)c(C(F)(F)F)c1 [Example 10]	
					Cn1nnc2c(C(N)=O)ncn2c1=O [TMZ, Temozolomide, reference compound]	54.5 days
0.19 µM	0.16 µM				O=C(Nc1nnc(-c2cccc(-c3ccsc3)c2)o1)c1ccc(F)c(C(F)(F)F)c1 [Example 8]	
0.12 µM	0.14 µM		90.0%		O=C(Nc1nnc(-c2cccc(C(F)(F)F)c2)o1)c1cc(F)cc(C(F)(F)F)c1 [Example 12, 3-fluoro-5-(trifluoromethyl)-N-(5-(3-(trifluoromethyl)phenyl)-1,3,4-oxadiazol-2-yl)benzamide]	
				< 0.4 ×10⁻⁶ cm/s	CNC(=C[N+](=O)[O-])NCCSCc1ccc(CN(C)C)o1 [Ranitidine, reference compound]	
